Reference: patent publication US9492453B2 (priority 2007, dated 2016)
Like-named read-outs stand apart in the source and are kept apart here.

Tests used:
AKT1 (PKBα) = AKT1 (PKBα) (Homo sapiens (Human), UniProt P31749); details: read-out: In vitro PKBα Mean IC50, AKT1/PKBα active enzyme, Caliper LabChip LC3000
PKB (Akt) = details: read-out: Cellular PKB Mean IC50; MDA-MB-468 cells, phosphorylation of Serine-9 of GSK-3β, 2 hours incubation

Chain of AKT1 (PKBα) (P31749 whole entry): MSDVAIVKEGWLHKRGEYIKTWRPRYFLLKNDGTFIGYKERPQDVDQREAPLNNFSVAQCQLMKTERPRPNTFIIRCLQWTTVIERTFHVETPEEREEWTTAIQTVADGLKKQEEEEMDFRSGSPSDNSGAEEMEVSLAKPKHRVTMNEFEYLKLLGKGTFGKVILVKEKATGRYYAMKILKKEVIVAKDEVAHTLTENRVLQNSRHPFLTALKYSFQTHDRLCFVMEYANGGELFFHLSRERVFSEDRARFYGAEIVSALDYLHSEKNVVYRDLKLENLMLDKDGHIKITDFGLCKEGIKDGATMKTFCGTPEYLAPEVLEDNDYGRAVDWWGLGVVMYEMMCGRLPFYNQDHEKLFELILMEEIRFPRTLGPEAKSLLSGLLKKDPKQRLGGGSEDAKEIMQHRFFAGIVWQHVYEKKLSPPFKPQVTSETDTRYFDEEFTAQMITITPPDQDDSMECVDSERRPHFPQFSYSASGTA

IC50 (AKT1 (PKBα)) | IC50 (PKB (Akt)) | IC50 (AKT1 (PKBα); tested once only) | SMILES
24 nM | 1100 nM | – | C[C@H](NC(=O)C1(N)CCN(c2ncnc3[nH]nc(Br)c23)CC1)c1ccc(Cl)cc1 [Example 31, 4-amino-1-(3-bromo-1H-pyrazolo[3,4-d]pyrimidin-4-yl)-N-[(1S)-1-(4-chlorophenyl)ethyl]piperidine-4-carboxamide]
16 nM | 540 nM | – | C[C@H](NC(=O)C1(N)CCN(c2ncnc3[nH]ccc23)CC1)c1ccc(C(F)(F)F)cc1 [Example 41, 4-amino-1-(7H-pyrrolo[2,3-d]pyrimidin-4-yl)-N-{(1S)-1-[4-(trifluoromethyl)phenyl]ethyl}piperidine-4-carboxamide]
– | 990 nM | 6.6 nM | NC(=O)CC(NC(=O)C1(N)CCN(c2ncnc3[nH]ccc23)CC1)c1ccc(Cl)cc1 (stereo not shown) [Example 66, 4-amino-N-(3-amino-1-(4-chlorophenyl)-3-oxopropyl)-1-(7H-pyrrolo[2,3-d]pyrimidin-4-yl)piperidine-4-carboxamide]
– | 1900 nM | – | C[C@H](NC(=O)C1(N)CCN(c2ncnc3[nH]ccc23)CC1)c1ccc(C#N)cc1 [Example 39, 4-amino-N-[(1S)-1-(4-cyanophenyl)ethyl]-1-(7H-pyrrolo[2,3-d]pyrimidin-4-yl)piperidine-4-carboxamide]
12 nM | 340 nM | – | N#CCC(NC(=O)C1(N)CCN(c2ncnc3[nH]ccc23)CC1)c1ccc(Cl)cc1 (stereo not shown) [Example 68, 4-amino-N-(1-(4-chlorophenyl)-2-cyanoethyl)-1-(7H-pyrrolo[2,3-d]pyrimidin-4-yl)piperidine-4-carboxamide]
32 nM | 4300 nM | – | C[C@@H](NC(=O)C1(N)CCN(c2ncnc3[nH]ccc23)CC1)c1ccc(Br)cc1 [Example 42, 4-amino-N-[(1R)-1-(4-bromophenyl)ethyl]-1-(7H-pyrrolo[2,3-d]pyrimidin-4-yl)piperidine-4-carboxamide]
5.6 nM | 90 nM | – | CCN(CC)CC[C@H](NC(=O)C1(N)CCN(c2ncnc3[nH]ccc23)CC1)c1ccc(Cl)cc1 [Example 26, (S)-4-amino-N-(1-(4-chlorophenyl)-3-(diethylamino)propyl)-1-(7H-pyrrolo[2,3-d]pyrimidin-4-yl)piperidine-4-carboxamide]
12 nM | 240 nM | – | C[C@@H](NC(=O)C1(CN)CCN(c2ncnc3[nH]ccc23)CC1)c1ccc(Cl)cc1 [Example 17, (R)-4-(aminomethyl)-N-(1-(4-chlorophenyl)ethyl)-1-(7H-pyrrolo[2,3-d]pyrimidin-4-yl)piperidine-4-carboxamide]
4.3 nM | 190 nM | – | CN1CCN(CC[C@H](NC(=O)C2(N)CCN(c3ncnc4[nH]ccc34)CC2)c2ccc(Cl)cc2)CC1 [Example 50, 4-amino-N-[(1S)-1-(4-chlorophenyl)-3-(4-methylpiperazin-1-yl)propyl]-1-(7H-pyrrolo[2,3-d]pyrimidin-4-yl)piperidine-4-carboxamide]
5.4 nM | 360 nM | – | CC(C)(O)C[C@H](NC(=O)C1(N)CCN(c2ncnc3[nH]ccc23)CC1)c1ccc(Cl)cc1 [Example 38, 4-amino-N-[(1S)-1-(4-chlorophenyl)-3-hydroxy-3-methylbutyl]-1-(7H-pyrrolo[2,3-d]pyrimidin-4-yl)piperidine-4-carboxamide]
23 nM | 850 nM | – | Cc1cc(CC(NC(=O)C2(N)CCN(c3ncnc4[nH]ccc34)CC2)c2ccc(Cl)cc2)on1 (stereo not shown) [Example 61, 4-amino-N-[1-(4-chlorophenyl)-2-(3-methylisoxazol-5-yl)ethyl]-1-(7H-pyrrolo[2,3-d]pyrimidin-4-yl)piperidine-4-carboxamide]
4 nM | 280 nM | – | C[C@H](NC(=O)C1(N)CCN(c2ncnc3[nH]cc(Br)c23)CC1)c1ccc(Cl)cc1 [Example 35, 4-amino-1-(5-bromo-7H-pyrrolo[2,3-d]pyrimidin-4-yl)-N-[(1S)-1-(4-chlorophenyl)ethyl]piperidine-4-carboxamide]
23 nM | 470 nM | – | NC1(C(=O)NC(Cn2cccn2)c2ccc(Cl)cc2)CCN(c2ncnc3[nH]ccc23)CC1 (stereo not shown) [Example 60, 4-amino-N-[1-(4-chlorophenyl)-2-(1H-pyrazol-1-yl)ethyl]-1-(7H-pyrrolo[2,3-d]pyrimidin-4-yl)piperidine-4-carboxamide]
19 nM | 550 nM | – | Cc1c[nH]c2ncnc(N3CCC(N)(C(=O)N[C@@H](C)c4ccc(Cl)cc4)CC3)c12 [Example 37, 4-amino-N-[(1S)-1-(4-chlorophenyl)ethyl]-1-(5-methyl-7H-pyrrolo[2,3-d]pyrimidin-4-yl)piperidine-4-carboxamide]
6.3 nM | 840 nM | – | NC1(C(=O)NC(Cc2ncc[nH]2)c2ccc(Cl)cc2)CCN(c2ncnc3[nH]ccc23)CC1 (stereo not shown) [Example 59, 4-amino-N-(1-(4-chlorophenyl)-2-(1H-imidazol-2-yl)ethyl)-1-(7H-pyrrolo[2,3-d]pyrimidin-4-yl)piperidine-4-carboxamide]
4.5 nM | 470 nM | – | CNCCC(NC(=O)C1(N)CCN(c2ncnc3[nH]ccc23)CC1)c1ccc(Cl)cc1 (stereo not shown) [Example 28, 4-amino-N-(1-(4-chlorophenyl)-3-(methylamino)propyl)-1-(7H-pyrrolo[2,3-d]pyrimidin-4-yl)piperidine-4-carboxamide]
9.7 nM | 270 nM | – | NCC(NC(=O)C1(N)CCN(c2ncnc3[nH]ccc23)CC1)c1ccc(Cl)cc1 (stereo not shown) [Example 5, 4-amino-N-(2-amino-1-(4-chlorophenyl)ethyl)-1-(7H-pyrrolo[2,3-d]pyrimidin-4-yl)piperidine-4-carboxamide]
10 nM | 310 nM | – | NC1(C(=O)N[C@@H](CCN2CCOCC2)c2ccc(Cl)cc2)CCN(c2ncnc3[nH]ccc23)CC1 [Example 51, 4-amino-N-[(1S)-1-(4-chlorophenyl)-3-morpholin-4-ylpropyl]-1-(7H-pyrrolo[2,3-d]pyrimidin-4-yl)piperidine-4-carboxamide]
1.2 nM | 20 nM | – | C[C@H](NC(=O)C1(CN)CCN(c2ncnc3[nH]ccc23)CC1)c1ccc(Cl)cc1 [Example 6, (S)-4-(aminomethyl)-N-(1-(4-chlorophenyl)ethyl)-1-(7H-pyrrolo[2,3-d]pyrimidin-4-yl)piperidine-4-carboxamide]
3 nM | 940 nM | – | NCCC(NC(=O)C1(N)CCN(c2ncnc3[nH]ccc23)CC1)c1ccc(Cl)cc1 (stereo not shown) [Example 14, 4-amino-N-(3-amino-1-(4-chlorophenyl)propyl)-1-(7H-pyrrolo[2,3-d]pyrimidin-4-yl)piperidine-4-carboxamide]
– | 100 nM | – | NCC1(C(=O)NC(CCO)c2ccc(Cl)cc2)CCN(c2ncnc3[nH]ccc23)CC1 (stereo not shown) [Example 12, 4-(aminomethyl)-N-(1-(4-chlorophenyl)-3-hydroxypropyl)-1-(7H-pyrrolo[2,3-d]pyrimidin-4-yl)piperidine-4-carboxamide]
28 nM | 560 nM | – | NC1(C(=O)NC(Cc2nccs2)c2ccc(Cl)cc2)CCN(c2ncnc3[nH]ccc23)CC1 (stereo not shown) [Example 62, 4-amino-N-(1-(4-chlorophenyl)-2-(thiazol-2-yl)ethyl)-1-(7H-pyrrolo[2,3-d]pyrimidin-4-yl)piperidine-4-carboxamide]
– | 370 nM | – | NC1(C(=O)N[C@@H](CCO)c2ccc(Cl)cc2)CCN(c2ncnc3[nH]cc(C4CC4)c23)CC1 [Example 27, (S)-4-amino-N-(1-(4-chlorophenyl)-3-hydroxypropyl)-1-(5-cyclopropyl-7H-pyrrolo[2,3-d]pyrimidin-4-yl)piperidine-4-carboxamide]
– | 890 nM | 7.7 nM | NC(=O)NCCC(NC(=O)C1(N)CCN(c2ncnc3[nH]ccc23)CC1)c1ccc(Cl)cc1 (stereo not shown) [Example 67, 4-amino-N-(1-(4-chlorophenyl)-3-ureidopropyl)-1-(7H-pyrrolo[2,3-d]pyrimidin-4-yl)piperidine-4-carboxamide]
3.4 nM | 180 nM | – | NC1(C(=O)N[C@@H](CCn2ccnc2)c2ccc(Cl)cc2)CCN(c2ncnc3[nH]ccc23)CC1 [Example 54, 4-amino-N-[(1S)-1-(4-chlorophenyl)-3-(1H-imidazol-1-yl)propyl]-1-(7H-pyrrolo[2,3-d]pyrimidin-4-yl)piperidine-4-carboxamide]
7.5 nM | 170 nM | – | NC1(C(=O)N[C@@H](CCO)c2ccc(Cl)cc2)CCN(c2ncnc3[nH]cnc23)CC1 [Example 22, (S)-4-amino-N-(1-(4-chlorophenyl)-3-hydroxypropyl)-1-(9H-purin-6-yl)piperidine-4-carboxamide]
1.3 nM | 80 nM | – | NCC1(C(=O)N[C@@H](CCO)c2ccc(Cl)cc2)CCN(c2ncnc3[nH]ccc23)CC1 [Example 23, (S)-4-(aminomethyl)-N-(1-(4-chlorophenyl)-3-hydroxypropyl)-1-(7H-pyrrolo[2,3-d]pyrimidin-4-yl)piperidine-4-carboxamide]
230 nM | 770 nM | – | N#CC(NC(=O)C1(N)CCN(c2ncnc3[nH]ccc23)CC1)c1ccc(Cl)cc1 (stereo not shown) [Example 45, 4-amino-N-[(4-chlorophenyl)(cyano)methyl]-1-(7H-pyrrolo[2,3-d]pyrimidin-4-yl)piperidine-4-carboxamide]
– | 260 nM | – | NC1(C(=O)N[C@@H](CCO)c2ccc(Cl)cc2)CCN(c2ncnc3[nH]cc(Br)c23)CC1 [Example 19, (S)-4-amino-1-(5-bromo-7H-pyrrolo[2,3-d]pyrimidin-4-yl)-N-(1-(4-chlorophenyl)-3-hydroxypropyl)piperidine-4-carboxamide]

SMILES | IC50 (AKT1 (PKBα)) | IC50 (PKB (Akt)) | IC50 (AKT1 (PKBα); tested once only)
NC1(C(=O)N[C@H](CCO)c2ccc(Cl)cc2)CCN(c2ncnc3[nH]ccc23)CC1 [Example 15, (R)-4-amino-N-(1-(4-chlorophenyl)-3-hydroxypropyl)-1-(7H-pyrrolo[2,3-d]pyrimidin-4-yl)piperidine-4-carboxamide] | – | > 3100 nM | –
